# Measurements: patent publication US12030876B2, “Aryl hydrocarbon receptor (AHR) agonists and uses thereof” (Ikena Oncology, Inc., priority 2019, dated 2024)
# Molecular target: T1, AHR (Homo sapiens, UniProt P35869)
# T1 construct: endogenous in cells; host or cells: HepG2 (human), transfected with a DRE-luciferase reporter only
# T1 sequence (P35869 11-848): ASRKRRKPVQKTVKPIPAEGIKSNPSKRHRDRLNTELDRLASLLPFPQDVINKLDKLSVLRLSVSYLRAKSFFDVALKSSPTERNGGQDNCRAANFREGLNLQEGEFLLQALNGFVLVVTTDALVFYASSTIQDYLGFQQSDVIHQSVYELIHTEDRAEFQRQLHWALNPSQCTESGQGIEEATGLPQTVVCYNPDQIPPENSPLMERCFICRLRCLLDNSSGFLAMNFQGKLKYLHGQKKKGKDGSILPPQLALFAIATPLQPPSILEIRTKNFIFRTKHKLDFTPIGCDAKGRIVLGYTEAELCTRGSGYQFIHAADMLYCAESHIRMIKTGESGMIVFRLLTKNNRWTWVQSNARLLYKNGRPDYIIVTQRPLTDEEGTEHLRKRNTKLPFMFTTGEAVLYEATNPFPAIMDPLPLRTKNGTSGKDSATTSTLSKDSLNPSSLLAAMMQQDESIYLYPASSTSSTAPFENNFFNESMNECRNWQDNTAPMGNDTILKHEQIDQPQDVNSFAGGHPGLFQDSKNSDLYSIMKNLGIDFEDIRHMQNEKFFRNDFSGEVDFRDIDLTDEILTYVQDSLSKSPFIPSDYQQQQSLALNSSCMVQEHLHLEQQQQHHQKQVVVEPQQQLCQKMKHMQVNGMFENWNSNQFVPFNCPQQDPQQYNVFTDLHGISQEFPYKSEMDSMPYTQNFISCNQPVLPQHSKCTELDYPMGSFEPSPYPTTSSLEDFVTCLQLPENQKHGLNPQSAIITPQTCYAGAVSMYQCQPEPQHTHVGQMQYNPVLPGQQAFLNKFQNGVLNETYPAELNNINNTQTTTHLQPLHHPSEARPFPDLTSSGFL
# Test: DRE-Luciferase Reporter Assay, HepG2 (agonist)
# Assay type: cell-based
# Conditions: HepG2, Table 2; read-out: DRE-Luc HepG2 - Agonist: Average EC50
# Method in brief: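 Cells carrying a stably or transiently transfected DRE-luciferase reporter, plated overnight at 37 C, then given agonist for 6, 16 or 24 h before lysis and luciferase read-out. Signal scaled between no ligand (minimum) and activating ligand alone, e.g. TCDD (maximum); EC50 = concentration giving half-maximal luciferase activity.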
row,EC50 [nM],SMILES
1,> 1000,C[N+]1(C)CCN(C(=O)c2cccc(-c3csc(Nc4cccc(C(F)(F)F)c4)n3)c2)CC1 [I-53]
2,< 10,FC(F)(F)c1cccc(Nc2nc(-c3cccc(Cl)c3)ns2)c1 [I-58]
3,< 10,FC(F)(F)c1cccc(Nc2ncc(-c3cccc(Cl)c3)o2)c1 [I-59]
4,10 to 100,FC(F)(F)c1cccc(Nc2cc(-c3cccc(Cl)c3)cs2)c1 [I-60]
5,100 to 1000,FC(F)(F)c1cccc(Nc2cc(-c3cccc(Cl)c3)cs2)c1 [I-61]

# Same assay, conditions: HepG2, Table 3; read-out: DRE-Luc HepG2 - Agonist: Average EC50
row,EC50 [nM],SMILES
1,< 10,O=c1ccc(-c2csc(Nc3cccc(C(F)(F)F)c3)n2)c[nH]1 [I-83]
2,< 10,N#Cc1cncc(-c2csc(Nc3cccc(C(F)(F)F)c3)n2)c1 [I-87]
3,< 10,O=[N+]([O-])c1cccc(-c2csc(Nc3cccc(C(F)(F)F)n3)n2)c1 [I-89]
4,< 10,N#Cc1cccc(-c2csc(Nc3cccc(C(F)(F)F)n3)n2)c1 [I-90]
5,< 10,FC(F)(F)c1cccc(Nc2nc(-c3cncc(Cl)c3)cs2)c1 [I-91]
6,< 10,C[n+]1cccc(-c2csc(Nc3cccc(C(F)(F)F)c3)n2)c1 [I-92]
7,< 10,O=c1cc(-c2csc(Nc3cccc(C(F)(F)F)c3)n2)cc[nH]1 [I-93]
8,< 10,N#Cc1cccc(-c2csc(Nc3cncc(C(F)(F)F)c3)n2)c1 [I-97]
9,< 10,N#Cc1cc(-c2csc(Nc3cccc(C(F)(F)F)c3)n2)c[n+]([O-])c1 [I-100]
10,< 10,[O-][n+]1cc(Cl)cc(-c2csc(Nc3cccc(C(F)(F)F)c3)n2)c1 [I-107]
11,< 10,N#Cc1cccc(-c2nsc(Nc3cccc(C(F)(F)F)c3)n2)c1 [I-109]
12,< 10,N#Cc1cccc(-c2cnc(Nc3cccc(C(F)(F)F)c3)o2)c1 [I-112]
13,< 10,[O-][n+]1cccc(-c2nsc(Nc3cccc(C(F)(F)F)c3)n2)c1 [I-117]
14,< 10,O=[N+]([O-])c1cc(-c2csc(Nc3cccc(C(F)(F)F)c3)n2)c[n+]([O-])c1 [I-120]

# Molecular target: T2, AHR (Mus musculus, UniProt P30561)
# T2 sequence (P30561 1-848 F348L/P471L): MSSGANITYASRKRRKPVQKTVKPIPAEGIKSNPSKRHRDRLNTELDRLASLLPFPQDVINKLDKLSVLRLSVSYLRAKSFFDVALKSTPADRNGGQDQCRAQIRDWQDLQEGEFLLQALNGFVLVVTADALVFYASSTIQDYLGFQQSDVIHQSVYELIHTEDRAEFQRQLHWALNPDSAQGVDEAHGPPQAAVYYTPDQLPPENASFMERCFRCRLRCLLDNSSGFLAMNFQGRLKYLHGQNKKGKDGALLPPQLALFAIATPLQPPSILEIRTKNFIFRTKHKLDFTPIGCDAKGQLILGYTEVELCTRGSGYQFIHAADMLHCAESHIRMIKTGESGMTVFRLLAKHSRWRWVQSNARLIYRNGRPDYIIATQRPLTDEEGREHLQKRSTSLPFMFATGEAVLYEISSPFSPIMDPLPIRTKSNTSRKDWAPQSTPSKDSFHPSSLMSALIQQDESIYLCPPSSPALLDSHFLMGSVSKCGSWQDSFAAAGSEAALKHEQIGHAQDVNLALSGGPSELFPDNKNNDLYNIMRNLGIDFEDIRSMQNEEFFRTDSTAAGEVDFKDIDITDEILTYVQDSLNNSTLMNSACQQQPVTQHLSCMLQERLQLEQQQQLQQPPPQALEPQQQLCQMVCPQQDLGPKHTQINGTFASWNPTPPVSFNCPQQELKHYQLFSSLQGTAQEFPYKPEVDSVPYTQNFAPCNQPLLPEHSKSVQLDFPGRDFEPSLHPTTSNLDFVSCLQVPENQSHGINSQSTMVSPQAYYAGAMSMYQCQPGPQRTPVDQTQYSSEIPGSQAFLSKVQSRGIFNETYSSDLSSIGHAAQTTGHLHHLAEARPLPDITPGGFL
# Test: P450 CYP1A1 Luciferase Assay, Hepa1.6 (agonist)
# Assay type: cell-based, murine
# Conditions: Hepa1.6, Table 2
# Protocol: P450 CYP1A1 Luciferase Assay
# AHR binds to Dioxin Responsive Elements (DRE) upstream of genes that it activates. One measure of AHR activity is P450 CYP1A1 protein levels determined by measuring CYP1A1 enzyme activity using a luminogenic CYP1A1 luciferin-based substrate. Luciferase activity will reflect CYP1A1 activity resulting from activation of AHR in the cells.
# Murine Hepa1-6 or Hepa-1c1c7 or other murine cell line, human HepG2 or other human cell line are plated in media (96-well, 384-well or other plates) and incubated overnight at 37 C in a CO2 incubator.
# (§1) The next day, an AHR agonist compound is added. Cells are incubated for 6, 16 or 24 hours or another time point and then lysed and incubated with a CYP1A1 luciferase-based substrate (e.g. Luciferin-CEE) for 3, 6, or 12 hours of another time point. Determination of luciferase activity as a read-out of CYP1A1 enzyme activity can be measured with a commercial kit such as the Promega P450 Glo CYP1A1 detection reagent or any kit or reagents that provide for measuring luciferase activity. The level of luciferase with only activating ligand (e.g. such as TCDD, kynurenine, ITE (2-(1H-indole-3-ylcarbonyl)-4-thiazolecarboxylic methyl ester), VAF347, BNF (beta-naphthoflavone), ICZ (6-formylindolo(3,2-b) carbazole or other AHR ligands) added is the maximum signal while the luciferase with no ligand is the minimum signal. EC50s can be determined as the concentration which activates half of the maximum luciferase activity.
row,EC50 [nM],SMILES
1,> 1000,C[N+]1(C)CCN(C(=O)c2cccc(-c3csc(Nc4cccc(C(F)(F)F)c4)n3)c2)CC1 [I-53]
2,> 1000,FC(F)(F)c1cccc(Nc2nc(-c3cccc(Cl)c3)ns2)c1 [I-58]
3,> 1000,FC(F)(F)c1cccc(Nc2ncc(-c3cccc(Cl)c3)o2)c1 [I-59]
4,> 1000,FC(F)(F)c1cccc(Nc2cc(-c3cccc(Cl)c3)cs2)c1 [I-60]
5,> 1000,FC(F)(F)c1cccc(Nc2cc(-c3cccc(Cl)c3)cs2)c1 [I-61]

# Molecular target: T2, AHR
# Test: DRE-Luciferase Reporter Assay, Hepa1.6 (agonist)
# Assay type: cell-based, murine
# Conditions: Hepa1.6, Table 3; read-out: DRE-Luc Hepa1.6 - Agonist: Average EC50
# Protocol: DRE-Luciferase Reporter Assay
# AHR binds to Dioxin Responsive Elements (DRE) upstream of genes that it activates. One measure of AHR activity is activation of a reporter gene, such as luciferase, downstream of one or multiple DRE elements. Luciferase activity reflects activation and inhibition of AHR in the cells expressing this reporter.
# Murine Hepa1-6 or Hepa-1c1c7 or other murine cell line with a DRE-luciferase reporter either stably or transiently transfected are plated in media in plates (96-well, 384-well or other plates) and incubated overnight at 37 C in a CO2 incubator. Likewise, human HepG2 or other human cell line with a DRE-luciferase reporter either stably or transiently transfected are plated in media in plates (96-well, 384-well or other plates) and incubated overnight at 37 C in a CO2 incubator.
# as §1, with “lysed” for “lysed and incubated with a CYP1A1 luciferase-based substrate (e.g. Luciferin-CEE)”, “determination” for “3, 6, or 12 hours of another time point. Determination”, “the AHR activation. Luciferase” for “CYP1A1 enzyme activity”, “Luciferase kit” for “P450 Glo CYP1A1 detection reagent”, “provide the luciferin substrate” for “provide”
row,EC50 [nM],SMILES
1,100 to 1000,O=c1ccc(-c2csc(Nc3cccc(C(F)(F)F)c3)n2)c[nH]1 [I-83]
2,> 1000,N#Cc1cncc(-c2csc(Nc3cccc(C(F)(F)F)c3)n2)c1 [I-87]
3,> 1000,O=[N+]([O-])c1cccc(-c2csc(Nc3cccc(C(F)(F)F)n3)n2)c1 [I-89]
4,> 1000,N#Cc1cccc(-c2csc(Nc3cccc(C(F)(F)F)n3)n2)c1 [I-90]
5,10 to 100,FC(F)(F)c1cccc(Nc2nc(-c3cncc(Cl)c3)cs2)c1 [I-91]
6,100 to 1000,C[n+]1cccc(-c2csc(Nc3cccc(C(F)(F)F)c3)n2)c1 [I-92]
7,> 1000,O=c1cc(-c2csc(Nc3cccc(C(F)(F)F)c3)n2)cc[nH]1 [I-93]
8,10 to 100,N#Cc1cccc(-c2csc(Nc3cncc(C(F)(F)F)c3)n2)c1 [I-97]
9,> 1000,N#Cc1cc(-c2csc(Nc3cccc(C(F)(F)F)c3)n2)c[n+]([O-])c1 [I-100]
10,> 1000,[O-][n+]1cc(Cl)cc(-c2csc(Nc3cccc(C(F)(F)F)c3)n2)c1 [I-107]
11,> 1000,N#Cc1cccc(-c2nsc(Nc3cccc(C(F)(F)F)c3)n2)c1 [I-109]
12,> 1000,N#Cc1cccc(-c2cnc(Nc3cccc(C(F)(F)F)c3)o2)c1 [I-112]
13,> 1000,[O-][n+]1cccc(-c2nsc(Nc3cccc(C(F)(F)F)c3)n2)c1 [I-117]
14,100 to 1000,O=[N+]([O-])c1cc(-c2csc(Nc3cccc(C(F)(F)F)c3)n2)c[n+]([O-])c1 [I-120]
